“And” between values parts separate entries of the source, which are not always exact repeats. Equal values may be shown once.
Experiments:
[1] = test system: IL-2 secretion from primary mouse splenocytes; experiment: Secreted IL-2 ELISA, stimulated primary splenocytes; format: cell-based; details: for IL-2 protein level (% of control): Suppl Fig. 4B
Source text: (§1) Plasmids. Plasmids for transfection were verified with Sanger Sequencing. Unless otherwise indicated, plasmids were made by subcloning cDNA fragments from constructs described in previous publications, as noted, and/or site directed mutagenesis. Plasmids in the pcDNA3 or pcDNA3.1 backbone include HA-MALT1(isoform B) (2), HA-MALT1(DD+Ig1-2) (aa 1- […]
MALT1(Ig1-2) V189R, HA-MALT1(Ig1-2) W203_Q205delinsAAA (Vector Builder), HA-MALT1(Ig1-2) H257_Q259delinsAAA (Vector Builder), HA-MALT1(Ig1-2)
P254_P256delinsAAA (Vector Builder), HA-MALT1(Ig1-2) H269_T271delinsAAA (Vector Builder), HA-MALT1(Ig1-2) K272_L274delinsAAA (Vector Builder), HA-MALT1 V189R (Vector Builder), HA-MALT1 V81R, HA-BCL10 (GeneCopoeia, Cat# M0769-M07), HA-BCL10 E53R, Myc-BCL10 (previously called CIPER) (3), Myc-BCL10 E53R, Myc-RICK (4), Myc-MAVS (subcloned from FLAG-MAVS (5)), and empty vector pCDNA3.1HA as a control.
ELISA-based protein-protein interaction assay. On a high-binding 96-well ELISA microplate (Greiner Cat# 655061), 100 ng of His-tagged recombinant human full-length BCL10 protein (Novus Cat# NBP1-99064) or in 100 µl PBS was allowed to adhere overnight at 4°C. The plate was blocked with 5% BSA in PBS for 1 hour at room temperature. After washing twice with PBS-T, a mixture of 100 ng of GST-tagged recombinant human full-length MALT1 protein (Novus Biologicals Cat# H00010892-P01) and compound that was preincubated for 1 hour in 100 μl PBS was added to the plate for 1 hour at room temperature. After washing three times with PBS-T, anti-MALT1 antibody (Cell Signaling Technology, Cat# 2494) in 5% BSA in PBS was added at 1:1000 dilution for 1 hour at room temperature. After washing three times with PBS-T, HRP-conjugated secondary antibody in 5% BSA in PBS was added at 1:5000 dilution for 1 hour at room temperature. After washing three times with PBS-T, 100 µl of 3,3’,5,5’-tetramethylbenzidine (TMB) substrate solution (Thermo Scientific, Cat# 34028) was added for up to 15 minutes, and 100 µl of 2 M sulfuric acid was added to stop the reaction. The plate was read at 450 nm using a spectrophotometer (Molecular Devices SpectraMax i3). The MyoD1/ID ELISA was performed as above except that 100 ng of recombinant human His-tagged MyoD1 (Proteintech, Cat# Ag13186) was plated overnight at 4°C prior to the addition of 100 ng of recombinant human GST-ID1 (Proteintech, Cat# Ag13359) preincubated to with compounds. The anti-GST antibody (clone 26H1, Cell signaling Technology, Cat #2624) was used to detect bound ID1.
Cytokine ELISAs. Cytokines in cell culture supernatants were measured 20-24h after treatment with 0, 0.01, 0.03, 0.1, 0.3, 1, or 3 µM of compounds using the following ELISA kits according to the manufacturer’s instructions: Human IL-2 ELISA (BioLegend Cat# 431804), Human IL-6 ELISA (BioLegend Cat# 430504), and Human IL-10 ELISA (BioLegend Cat# 430604). TMD8 and OCI-Ly3 cells were treated with specific doses of compounds in serum-free media for 20 hours. Jurkat T cells were pretreated with specific doses of compounds for 8 hours in serum-free media, then stimulated with PMA/ionomycin for 16 hours prior to the collection of supernatants.
Mouse splenocytes were isolated from spleens of C57/BL6 mice by passing spleens through a 70 micron filter followed by red blood cell lysis using ACK lysing buffer (Quality Biologics, Cat# 118-156-101). […]
(§2) Mouse T-Activator CD3/C28. Supernatant was collected at 24 hours and mouse IL-2 levels were analyzed via ELISA (R&D Systems, Cat# DY402-05).

[2] = test system: TMD8 cells; experiment: IL6 and IL10 mRNA, qRT-PCR; format: cell-based, human; details: TMD8, 1 μM; for IL6 and IL10 mRNA levels: 24 hours, result in words
Method: TMD8 cells were treated with small molecule inhibitors for 24 with cultures conditions described above except that FBS was 5%. OCI-Ly3 were treated with inhibitors in serum free media for 24 hours. Total RNA extraction from cell lines was performed using RNeasy Plus Mini Kit (Qiagen, Cat# 74136). […]
Kit. RNA was transcribed into cDNA using High-Capacity cDNA Reverse Transcription Kit (Applied Biosystems, Cat# 4368814) according to manufacturer’s instructions. RT-PCR was performed using TaqMan Universal PCR Master Mix (Applied Biosystems, Cat# 4304437) and run on a StepOnePlus Real-Time PCR machine (Applied Biosystems). The following probes from ThermoFisher Scientific were used for qRT-PCR: IL2 TaqMan probe Hs00174114, IL6 TaqMan

[3] = target: T1, BCL10-MALT1 interaction (Homo sapiens, UniProt Q9UDY8); experiment: ELISA-based BCL10-MALT1 protein-protein interaction assay; details: MALT1 preincubated 1 hour with compound; read-out: IC50, inhibition of MALT1 binding to immobilized BCL10
T1 construct: GST-tagged recombinant human full-length MALT1 protein in solution; purchased Novus Biologicals H00010892-P01 (MALT1); NBP1-99064 (BCL10)
T1 sequence (Q9UDY8 1-813 isoform Q9UDY8-2): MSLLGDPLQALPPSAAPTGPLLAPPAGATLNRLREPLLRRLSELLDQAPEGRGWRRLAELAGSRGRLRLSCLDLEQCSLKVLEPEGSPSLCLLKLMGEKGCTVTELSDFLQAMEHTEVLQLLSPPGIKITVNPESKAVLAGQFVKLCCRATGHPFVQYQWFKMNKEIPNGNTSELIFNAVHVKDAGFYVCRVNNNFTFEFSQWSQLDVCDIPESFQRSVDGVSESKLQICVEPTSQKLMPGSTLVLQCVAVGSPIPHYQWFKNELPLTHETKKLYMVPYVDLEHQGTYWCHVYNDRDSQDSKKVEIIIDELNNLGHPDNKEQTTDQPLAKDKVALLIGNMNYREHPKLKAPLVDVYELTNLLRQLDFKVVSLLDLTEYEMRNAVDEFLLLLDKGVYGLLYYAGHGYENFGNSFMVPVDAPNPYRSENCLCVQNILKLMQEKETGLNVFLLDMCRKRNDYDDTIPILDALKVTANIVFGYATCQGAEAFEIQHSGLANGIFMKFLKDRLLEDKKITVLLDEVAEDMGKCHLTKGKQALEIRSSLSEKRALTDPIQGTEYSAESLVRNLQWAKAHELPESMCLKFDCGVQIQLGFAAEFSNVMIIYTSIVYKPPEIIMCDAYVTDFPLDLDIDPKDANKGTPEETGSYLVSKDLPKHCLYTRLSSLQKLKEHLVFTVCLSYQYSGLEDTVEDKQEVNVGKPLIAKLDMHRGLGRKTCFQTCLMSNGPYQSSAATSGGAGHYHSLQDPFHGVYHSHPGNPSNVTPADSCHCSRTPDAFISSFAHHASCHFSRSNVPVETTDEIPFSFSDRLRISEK
Source text: A 96-well ELISA was employed, whereby His-tagged full-length BCL10 protein was immobilized in wells and exposed to GST-tagged recombinant human full-length MALT1 protein in solution, followed by detection with anti-MALT1 antibody. Details are provided in Supplemental Methods.
as §1
MALT1(Ig1-2) V189R, HA-MALT1(Ig1-2) W203_Q205delinsAAA (Vector Builder), HA-MALT1(Ig1-2) H257_Q259delinsAAA (Vector Builder), HA-MALT1(Ig1-2) […]
ELISA-based protein-protein interaction assay. […] The plate was read at 450 nm using a spectrophotometer (Molecular Devices SpectraMax i3). […]
Cytokine ELISAs. Cytokines in cell culture supernatants were measured 20-24h after treatment with 0, 0.01, 0.03, 0.1, 0.3, 1, or 3 µM of compounds using the following ELISA kits according to the manufacturer’s instructions: Human IL-2 ELISA (BioLegend Cat# 431804), Human IL-6 ELISA (BioLegend Cat# 430504), and Human IL-10 ELISA (BioLegend Cat# 430604). […]
as §2

| Structure (SMILES) | IL-2 secretion from primary mouse splenocytes ([1]; 1 μM, PMA/Iono or anti-CD3/CD28, result in words) | IL-2 protein level (% of control) ([1]; CD3/CD28 treated) | IL-2 protein level (% of control) ([1]; PMA/Iono treated) | IL-10 mRNA (normalized) [2] | IL6 and IL10 mRNA levels [2] | IC50 [3] | IL-2 protein level (% of control) ([1]; CD3/CD28 treated, 1 uM) | IL-2 protein level (% of control) ([1]; PMA/Iono treated, 1 uM) |
| --- | --- | --- | --- | --- | --- | --- | --- | --- |
| O=S(=O)(NCc1ccc2c(c1)OCO2)c1ccc(Cc2ccc(S(=O)(=O)NCc3ccc4c(c3)OCO4)cc2)cc1 [M1i-124] | reduced IL-2 secretion | 50.4652 % of control and 31.9351 % of control and 38.7736 % of control | 60.6294 % of control and 65.2902 % of control and 36.6638 % of control | 0.19 and 0.23 and 0.25 and 0.2 and 0.18 and 0.32 | significantly decrease IL6 and IL10 mRNA levels | 16 µM | – | – |
| COc1ccc(CNS(=O)(=O)c2ccc(Cc3ccc(S(=O)(=O)NCc4ccc(OC)cc4)cc3)cc2)cc1 [M1i-124d1] | – | – | – | 0.31 and 0.33 and 0.37 and 0.53 and 0.28 and 0.52 | significantly decrease IL6 and IL10 mRNA levels | 34 µM | – | – |
| CN1CCCC(CN2c3ccccc3Sc3ccccc32)C1 (centres unmarked) [Mepazine, mepazine, reference compound] | – | – | – | – | – | – | 96.0182 % of control and 76.5551 % of control | 66.5904 % of control and 66.2291 % of control |
